Assay results reported in patent publication US10960087B2, “Compositions and methods for treatment of diabetic retinopathy” (NOVARTIS AG, priority 2007, dated 2021).
Like-named read-outs stand apart in the source and are kept apart here.

Key:
[1] = tested on: human mononucleocytes (PBMC) stimulated with staphylococcal enterotoxin B (SEB); assay: cells; format: cell-based
LFA-1 = LFA-1 (Homo sapiens, UniProt P20701); conditions: Lu et al. 2004; cited from earlier work
Sequence of LFA-1 (P20701 26-1170): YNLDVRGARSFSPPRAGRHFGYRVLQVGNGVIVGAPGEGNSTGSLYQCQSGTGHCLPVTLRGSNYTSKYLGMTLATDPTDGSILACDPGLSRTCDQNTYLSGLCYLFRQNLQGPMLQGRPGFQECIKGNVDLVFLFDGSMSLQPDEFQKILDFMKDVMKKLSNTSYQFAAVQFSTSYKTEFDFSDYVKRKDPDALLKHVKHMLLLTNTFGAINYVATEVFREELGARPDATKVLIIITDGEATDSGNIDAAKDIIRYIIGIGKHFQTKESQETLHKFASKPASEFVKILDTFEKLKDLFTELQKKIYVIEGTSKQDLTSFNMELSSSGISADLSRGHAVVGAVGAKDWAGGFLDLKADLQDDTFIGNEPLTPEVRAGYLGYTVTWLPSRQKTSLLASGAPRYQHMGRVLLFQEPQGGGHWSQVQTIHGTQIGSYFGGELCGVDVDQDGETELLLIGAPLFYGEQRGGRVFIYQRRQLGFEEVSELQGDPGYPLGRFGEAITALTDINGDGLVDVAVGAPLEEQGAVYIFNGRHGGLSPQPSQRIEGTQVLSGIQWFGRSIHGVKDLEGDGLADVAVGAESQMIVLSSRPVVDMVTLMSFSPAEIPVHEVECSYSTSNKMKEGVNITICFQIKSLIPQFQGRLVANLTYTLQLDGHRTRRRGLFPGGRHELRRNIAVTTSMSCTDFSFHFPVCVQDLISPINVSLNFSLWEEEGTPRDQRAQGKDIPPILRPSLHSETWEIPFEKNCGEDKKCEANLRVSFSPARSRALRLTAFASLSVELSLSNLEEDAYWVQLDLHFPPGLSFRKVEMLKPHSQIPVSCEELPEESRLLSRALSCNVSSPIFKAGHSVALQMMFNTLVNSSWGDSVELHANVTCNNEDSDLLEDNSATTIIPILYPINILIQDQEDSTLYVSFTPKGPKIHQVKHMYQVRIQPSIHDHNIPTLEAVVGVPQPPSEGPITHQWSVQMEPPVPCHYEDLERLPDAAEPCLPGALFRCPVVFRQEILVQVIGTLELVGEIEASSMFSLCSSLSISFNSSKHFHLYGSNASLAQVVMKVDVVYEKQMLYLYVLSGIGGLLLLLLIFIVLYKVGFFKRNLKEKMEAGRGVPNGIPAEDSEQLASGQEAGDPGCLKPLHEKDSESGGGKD
Sequence of LFA-1 (P05107 23-769 partner): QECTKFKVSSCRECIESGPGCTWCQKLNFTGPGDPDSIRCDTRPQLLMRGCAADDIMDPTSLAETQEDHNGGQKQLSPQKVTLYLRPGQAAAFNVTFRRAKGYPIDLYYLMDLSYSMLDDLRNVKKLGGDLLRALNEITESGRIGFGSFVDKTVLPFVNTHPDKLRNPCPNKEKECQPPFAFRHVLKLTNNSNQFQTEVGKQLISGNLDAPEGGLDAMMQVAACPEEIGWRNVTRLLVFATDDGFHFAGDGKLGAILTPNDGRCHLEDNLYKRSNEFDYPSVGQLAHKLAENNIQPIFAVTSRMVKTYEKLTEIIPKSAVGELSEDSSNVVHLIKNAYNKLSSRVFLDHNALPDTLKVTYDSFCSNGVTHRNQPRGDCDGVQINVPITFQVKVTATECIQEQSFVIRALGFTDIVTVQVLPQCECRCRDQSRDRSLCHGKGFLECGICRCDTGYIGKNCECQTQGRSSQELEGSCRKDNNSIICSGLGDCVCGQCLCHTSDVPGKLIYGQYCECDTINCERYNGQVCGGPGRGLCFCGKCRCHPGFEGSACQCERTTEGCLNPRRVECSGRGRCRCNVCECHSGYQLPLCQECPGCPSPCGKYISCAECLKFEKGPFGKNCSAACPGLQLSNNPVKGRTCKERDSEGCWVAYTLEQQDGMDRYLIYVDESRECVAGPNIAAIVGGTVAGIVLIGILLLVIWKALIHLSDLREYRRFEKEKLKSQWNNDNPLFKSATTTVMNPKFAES

Molecule	EC50 ([1]; read-out: EC50 Cytokine Release GM-CSF) [µM]	EC50 ([1]; read-out: EC50 Cytokine Release IFNγ) [µM]	EC50 ([1]; read-out: EC50 Cytokine Release IL-1α) [µM]	EC50 ([1]; read-out: EC50 Cytokine Release IL-1β) [µM]	EC50 ([1]; read-out: EC50 Cytokine Release IL-2) [µM]	EC50 ([1]; read-out: EC50 Cytokine Release IL-3) [µM]	EC50 ([1]; read-out: EC50 Cytokine Release IL-4) [µM]	EC50 ([1]; read-out: EC50 Cytokine Release IL-5) [µM]	EC50 ([1]; read-out: EC50 Cytokine Release IL-6) [µM]	EC50 ([1]; read-out: EC50 Cytokine Release IL-10) [µM]	EC50 ([1]; read-out: EC50 Cytokine Release IL-12p40) [µM]	EC50 ([1]; read-out: EC50 Cytokine Release IL-13) [µM]	EC50 ([1]; read-out: EC50 Cytokine Release IP-10) [µM]	EC50 ([1]; read-out: EC50 Cytokine Release MCP-1) [µM]	EC50 ([1]; read-out: EC50 Cytokine Release MIP-1α) [µM]	EC50 ([1]; read-out: EC50 Cytokine Release TNF-α) [µM]	Mode of antagonism of LFA-1 (LFA-1)
O=C(NC(Cc1cc(=O)[nH]c2ccccc12)C(=O)O)c1ccc(Cl)cc1 (centres unmarked) [Rebamipide]	> 1000	> 1000	> 1000	> 1000	> 1000	> 1000	> 1000	> 1000	> 1000	> 1000	> 1000	> 1000	> 1000	> 1000	> 1000	> 1000	
efalizumab: antibody directed against LFA-1																	directly competitive antagonist of LFA-1
